# US20250154201A1, “PEPTIDE BINDING TO MESOTHELIN, AND USE THEREOF” (KYUNGPOOK NATIONAL UNIVERSITY INDUSTRY-ACADEMIC COOPERATION …, priority 2022, published 2025)
# Key:
# [1] = tested on: AsPC-1 cells expressing mesothelin; test: binding to AsPC-1 cells after mesothelin siRNA (confocal immunofluorescence and flow cytometry); type: cell-based, human; conditions: for specific binding (flow cytometry): 25 μM MSLN-pep
# Method: Mesothelin-specific siRNA (M-siRNA) and negative control siRNA (C-siRNA) were purchased from Bioneer and transfected with Lipofectamine RNAiMAX transfection reagent (Invitrogen) into AsPC-1, a pancreatic cancer cell line. After 24 hours of transfection, the media were replaced with a medium containing serum, followed by culture for an additional 24 hours.
# After AsPC-1 cells were cultured for 24 hours, for suppression of mesothelin expression, transfection followed with C-siRNA, a non-specific siRNA, as well as M-siRNA, a mesothelin-specific siRNA. To detect the silencing of the mesothelin gene, the group was divided into one without treatment of siRNA, one with treatment of 100 nM C-siRNA, and one with treatment of 100 nM and 200 nM M-siRNA. Mesothelin antibody and MSLN-pep were then treated by 10 μM and 25 μM, respectively. Further, the results were identified by means of confocal microscopy via immunofluorescence analysis (FIG. 6A). […] Flow cytometry was performed to determine the expression level of mesothelin when siRNA was not treated to AsPC-1 cells and the expression level of mesothelin after C-siRNA and M-siRNA were treated, of which values were expressed in % binding with the mesothelin antibody and the mean fluorescence intensity (MFI). […] As a result of performing flow cytometry to determine the difference between the binding of 25 μM MSLN-pep when siRNA was not treated to AsPC-1 cells expressing mesothelin and the binding of 25 μM MSLN-pep after treating with C-siRNA and M-siRNA, when treated with no siRNA or treated with 100 nM C-siRNA, the specific binding of 25 μM MSLN-pep was approximately 78%, and when treated with 100 nM and 200 nM M-siRNA, it was approximately 15%. This series of results reveal the degree of mesothelin expression and the reduction of mesothelin expression when M-siRNA is treated. […] In brief, it was determined that MSLN-pep specifically binds to cells expressing mesothelin.
# [2] = biological target: T1, mesothelin (Homo sapiens, UniProt Q13421); test: phage-binding ELISA and phage immunofluorescence staining of phage clones; design: GFP; host or cells: HEK293T; conditions: phage clone, compared to other phage clones
# Description: A phage peptide library based on the T7 415-1b phage vector, represented by CX7C (C, cysteine; X, any amino acid residue) was designed according to the manufacturer's instructions (Novagen, Madison, WI). The phage library has approximately 1×10^9 plaque-forming unit (pfu). In other words, HEK-293T cells transfected with a mesothelin-expressing plasmid pCMV6-AC-GFP vector were dispensed in a 35 mm dish and cultured to meet a confluency of 60-70%. For transient transfection of HEK-293T cells, the cells were treated with Lipofectamine 3000 (Invitrogen) and cultured for 48 hours. First, phage libraries with 1×109 plaque-forming unit (pfu) were cultured in untransfected HEK-293T cells at 4° C. for 30 minutes. […] The eluate was used for titration, the remaining eluted phage clones were lysed in 10 ml of LB medium for amplification for the next cycle, and the process was repeated 5 times. […]
# To screen peptides specifically binding to mesothelin, the present inventors first prepared HEK-293T cells transiently transfected with a mesothelin-GFP plasmid. […] As a result of observing mesothelin-GFP expression via immunofluorescence analysis, transfection was detected at each time point compared to untransfected HEK-293T cells (FIG. 2A). […]
# Target sequence in this assay (Q13421 with tags, fused parts or gaps): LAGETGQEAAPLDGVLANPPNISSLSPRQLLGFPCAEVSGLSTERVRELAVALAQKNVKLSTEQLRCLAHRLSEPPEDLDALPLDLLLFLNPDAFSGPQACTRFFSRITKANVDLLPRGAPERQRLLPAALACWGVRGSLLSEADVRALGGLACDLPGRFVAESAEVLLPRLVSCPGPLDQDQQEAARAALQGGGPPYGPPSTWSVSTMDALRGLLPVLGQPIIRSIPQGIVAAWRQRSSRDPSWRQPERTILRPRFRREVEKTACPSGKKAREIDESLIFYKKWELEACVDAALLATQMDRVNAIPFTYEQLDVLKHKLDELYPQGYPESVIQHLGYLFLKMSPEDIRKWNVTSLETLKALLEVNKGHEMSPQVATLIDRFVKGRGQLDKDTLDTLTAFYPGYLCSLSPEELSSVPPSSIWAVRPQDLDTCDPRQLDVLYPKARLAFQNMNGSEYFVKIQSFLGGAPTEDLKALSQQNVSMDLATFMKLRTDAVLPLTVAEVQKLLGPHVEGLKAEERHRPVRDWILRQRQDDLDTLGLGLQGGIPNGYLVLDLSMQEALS
# [3] = tested on: PANC-1 and AsPC-1 cell lines; test: analysis of invasion (Matrigel-coated 24-transwell); type: cell-based, human; conditions: 24 hours
# Method: PANC-1 and AsPC-1 cell lines were cultured using DMEM and RPMI-1640 media with 10% FBS added in 100 mm dish each at a concentration of 2×10^6 cells per well. After 24 hours, all media in 100 mm dishes were removed and replaced with DMEM and RPMI-1640 media without addition of 10% FBS to inhibit migratability of cell lines so as to be in a starvation state. After 24 hours, 300 μg/mL of Matrigel was coated on the upper chamber of 24-Transwell. Afterwards, PANC-1 and AsPC-1 cell lines were cultured in the upper chamber at a concentration of 2×10^4 cells in a 100 mm dish, 10% FBS was added to the lower chamber for the experimental group, and 0% FBS was added to the lower chamber for the control group to identify migratability. 3% ACN, 200 μM control peptide (Ctrl-pep), MSLN-pep 25. For 50, 100, and 200 μM groups, each cell line was cultured together in the upper chamber of the 24-Transwell, and 10% FBS was treated in the lower chamber. Each group was cultured at 37° C. for 24 hours, and then the cells were photographed (original magnification, ×100) for each concentration of peptides. Cells were stained with crystal violet (0.1%), and Image J, a computer program, was used for quantitative evaluation.
# After pancreatic cancer cell lines PANC-1 and AsPC-1 were cultured in 24-transwells, all cells were starved for 24 hours to inhibit cell growth, and then treatment was performed in divided groups of 10% FBS, 0% FBS, 3% ACN+10% FBS, 200 μM NSSSVDK+10% FBS, 25 μM MSLN-pep+10% FBS, 50 μM MSLN-pep+10% FBS, 100 μM MSLN-pep+10% FBS, and 200 μM MSLN-pep+10% FBS.
# [4] = in vitro; conditions: human
# Method: Pancreatic cancer cell line AsPC-1 cells (5×10^3 cells/well in 96-well plates) were cultured in 1% serum medium with various concentrations of MSLN-pep peptide that specifically binds to mesothelin, NSSSVDK control peptide (Ctrl-pep), R7-KLA peptide that induces apoptosis, Abraxane, gemcitabine, and PBS at 37° C. for 24 and 48 hours. Afterwards, CCK-8 Kit (Dojindo, Kumamoto, Japan) reagent was treated, and a reaction was carried out at 37° C. for 2 hours to evaluate cytotoxicity.
# To determine whether there is cytotoxicity when MSLN-pep binds specifically to mesothelin, the peptide was treated to the pancreatic cancer cell line AsPC-1 at concentrations of 0, 25, 50, 100, and 200 μM, and cell viability was checked for 24 and 48hours.
# [5] = biological target: T1, mesothelin; test: co-localization of TAMRA-labeled MSLN-pep with mesothelin antibody (confocal microscopy); type: cell-based; design: endogenous in cells; conditions: AsPC-1, PANC-1, BxPC-3
# Method: Pancreatic cancer cell lines AsPC-1, PANC-1, and BxPC-3 were cultured in a 4-well chamber and then treated with mesothelin antibodies to determine the location where mesothelin is expressed.
# Target sequence in this assay (Q13421 with tags, fused parts or gaps limits assumed): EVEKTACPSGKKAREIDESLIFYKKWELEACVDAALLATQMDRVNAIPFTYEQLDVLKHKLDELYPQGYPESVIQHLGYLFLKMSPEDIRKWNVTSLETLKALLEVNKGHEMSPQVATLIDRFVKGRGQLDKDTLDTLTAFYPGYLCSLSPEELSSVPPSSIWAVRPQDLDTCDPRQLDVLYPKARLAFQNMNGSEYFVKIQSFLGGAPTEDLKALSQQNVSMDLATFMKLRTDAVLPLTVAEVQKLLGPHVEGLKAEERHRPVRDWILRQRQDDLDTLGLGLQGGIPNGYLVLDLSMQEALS
smiles,measurement,setting,value
CC[C@H](C)[C@@H]1NC(=O)[C@H]([C@@H](C)O)NC(=O)[C@@H](N)CSSC[C@@H](C(=O)O)NC(=O)[C@H]([C@@H](C)O)NC(=O)[C@H](CC(C)C)NC(=O)[C@H](CO)NC(=O)[C@H](Cc2c[nH]c3ccccc23)NC(=O)[C@H](CC(C)C)NC1=O [MSLN-pep],specific binding (flow cytometry),[1]; 100 nM and 200 nM M-siRNA,approximately 15%
same,specific binding (flow cytometry),[1]; no siRNA or 100 nM C-siRNA,approximately 78%
same,specific binding to mesothelin (confocal immunofluorescence),[1]; 25 μM compared to 10 μM,higher specific binding to mesothelin
same,specific binding (confocal immunofluorescence),[1]; M-siRNA 100 nM and 200 nM,decreased with the decrease of mesothelin expression
same,binding to mesothelin through phage ELISA and phage immunofluorescence staining,[2],binds to mesothelin in high degree
same,invasiveness compared to treatment of 10% FBS,[3]; 25 μM + 10% FBS,no difference in the migratability and invasiveness
same,invasiveness,"[3]; 50, 100 and 200 μM + 10% FBS",suppressed with increasing concentrations of MSLN-pep
same,viability at 200 µM,[4],~80%
same,location of binding site relative to mesothelin expression,[5],binding took place at the same spot where the mesothelin is expressed
